The source of these data is ChEMBL document CHEMBL1806418, “Azepanone-based inhibitors of human cathepsin S: optimization of selectivity via the P2 substituent” (Bioorg Med Chem Lett, 2011).

As a reminder, the pIC50 is the IC50 on a negative log10 scale, so that one unit is a factor of ten. The pKi is −log10 of the Ki, conventionally taken in molar units.

pIC50, pKi: −log10 of the molar value.

Assay [1] has as its target T1, Cathepsin S (Homo sapiens, UniProt P25774). The experiment in a line: Inhibition of human recombinant cathepsin S using Ac-KQLR-AMC as substrate by fluorescence assay.
The target of assay [2] is T2, Cathepsin K (Homo sapiens, UniProt P43235).
T2 sequence (P43235 whole entry): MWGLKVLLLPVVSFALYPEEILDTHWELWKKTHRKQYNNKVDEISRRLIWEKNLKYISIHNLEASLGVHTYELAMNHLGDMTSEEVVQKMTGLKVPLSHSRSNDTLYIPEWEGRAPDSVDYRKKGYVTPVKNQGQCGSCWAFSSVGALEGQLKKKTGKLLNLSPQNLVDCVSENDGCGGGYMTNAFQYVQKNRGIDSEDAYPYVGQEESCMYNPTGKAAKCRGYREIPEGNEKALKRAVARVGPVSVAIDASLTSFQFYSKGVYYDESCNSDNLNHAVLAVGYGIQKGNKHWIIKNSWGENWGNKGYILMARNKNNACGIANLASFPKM
Kind of assay: Inhibition of human recombinant cathepsin K using z-LR-AFC as substrate by fluorescence assay.

Assay [3] deals with T3, Procathepsin L (Homo sapiens, UniProt P07711). The experiment in a line: Inhibition of human recombinant cathepsin L using Z-LR-AMC as substrate by fluorescence assay.
Assay [4] has as its target T1, Cathepsin S. The experiment in a line: Inhibition of cathepsin S in human Raji cells assessed as decrease in cell surface expression of MHC class 2/CLIP by flow cytometric analysis. The class given is cell-based. (In flow cytometry, cells or beads pass a laser one at a time.)
Assay [5] concerns the target T2, Cathepsin K. The experiment in a line: Inhibition of human cathepsin K using Z-Lys-Gln-Lys-Leu-Arg-AMC as substrate after 1 hr by fluorescence assay. The note with it: read-out: Ki(app).
For assay [6], the target named is T1, Cathepsin S. Kind of assay: Inhibition of human cathepsin S using Z-Lys-Gln-Lys-Leu-Arg-AMC as substrate after 1 hr by fluorescence assay. The note with it: read-out: Ki(app).
In assay [7] the target is T3, Procathepsin L. Kind of assay: Inhibition of human cathepsin L using Z-Phe-Arg-AMC as substrate after 1 hr by fluorescence assay. The settings on record: read-out: Ki(app).

T1 sequence (P25774 whole entry): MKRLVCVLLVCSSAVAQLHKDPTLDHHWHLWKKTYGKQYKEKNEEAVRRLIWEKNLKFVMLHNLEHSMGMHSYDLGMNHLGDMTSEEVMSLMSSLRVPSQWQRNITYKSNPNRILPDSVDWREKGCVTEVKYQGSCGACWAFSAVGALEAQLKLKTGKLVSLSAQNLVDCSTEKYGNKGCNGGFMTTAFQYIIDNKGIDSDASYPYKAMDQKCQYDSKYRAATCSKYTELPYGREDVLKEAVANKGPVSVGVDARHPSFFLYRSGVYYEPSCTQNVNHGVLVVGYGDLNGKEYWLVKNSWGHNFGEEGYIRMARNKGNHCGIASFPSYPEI
T3 sequence (P07711 whole entry): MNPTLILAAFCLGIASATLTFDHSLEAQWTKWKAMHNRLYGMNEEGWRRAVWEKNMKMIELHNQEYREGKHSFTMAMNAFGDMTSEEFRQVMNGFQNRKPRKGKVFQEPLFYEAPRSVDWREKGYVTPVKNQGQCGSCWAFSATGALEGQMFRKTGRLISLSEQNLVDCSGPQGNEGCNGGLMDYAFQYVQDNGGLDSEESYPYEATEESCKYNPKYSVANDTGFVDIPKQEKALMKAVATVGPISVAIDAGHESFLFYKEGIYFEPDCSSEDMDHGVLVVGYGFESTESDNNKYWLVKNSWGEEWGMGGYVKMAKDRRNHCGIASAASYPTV

For `C[C@@H]1CC[C@H](NC(=O)[C@H](CC(C)(C)C)NC(=O)c2ccco2)C(=O)CN1S(=O)(=O)c1ccccn1`, the pIC50 in assay [1] was 8.89; in assay [2] it was 8.33; in assay [3], 7.94; in assay [4] it was 5.32.
Consider `C[C@@H]1CC[C@H](NC(=O)[C@H](CCC2CCCC2)NC(=O)c2ccco2)C(=O)CN1S(=O)(=O)c1ccccn1`, for which the pIC50 in assay [1] was 8.72; in assay [2], 6.08; in assay [3] it was 7.97.
Regarding `C[C@@H]1CC[C@H](NC(=O)[C@H](CC2(C)CCCCC2)NC(=O)c2ccco2)C(=O)CN1S(=O)(=O)c1ccccn1`, the negative logarithm of the IC50 (pIC50) was above 9.40 in assay [1], 7.35 in assay [2], 7.50 in assay [3] and 5.85 in assay [4].
In the case of `CC(C)C[C@H](NC(=O)c1ccco1)C(=O)N[C@H]1CC[C@@H](C)N(C(=O)c2ccccn2)CC1=O`, the results for the pIC50 in assay [1], in assay [2] and in assay [3] were 7.50, 8.00 and 8.00, respectively.
For the compound `C[C@@H]1CC[C@H](NC(=O)[C@H](CC2CCCCCC2)NC(=O)c2ccco2)C(=O)CN1S(=O)(=O)c1ccccn1`, the results for the negative logarithm of the IC50 (pIC50) in assay [1], in assay [2] and in assay [3] were above 9.40, 7.55 and above 9.40, respectively.
On to `C[C@@H]1CC[C@H](NC(=O)[C@H](CCC2CCCC2)NC(=O)N2CCOCC2)C(=O)CN1S(=O)(=O)c1ccccn1`, for which the values for the negative logarithm of the IC50 (pIC50) in assay [1], in assay [2] and in assay [3] were 9.24, 5.96 and 7.97, respectively.
As for `O=C(N[C@@H](Cc1ccc2ccccc2c1)C(=O)N[C@H]1CCCN(S(=O)(=O)c2ccccn2)CC1=O)c1cccc2ccccc12`, the negative-log Ki (pKi) in assay [5] is below 5.00.
With `C[C@@H]1CC[C@H](NC(=O)[C@@H](CC2(C)CCCC2)NC(=O)c2ccco2)C(=O)CN1S(=O)(=O)c1ccccn1`, the pIC50 in assay [1] was 7.00; in assay [2], 5.72; in assay [3], 5.36.
The like results for `C[C@@H]1CC[C@H](NC(=O)[C@@H](CC2(C)CCCCC2)NC(=O)c2ccco2)C(=O)CN1S(=O)(=O)c1ccccn1` were, in that order, 7.43, 5.64 and 5.77.
Consider `C[C@@H]1CC[C@H](NC(=O)[C@H](CC2(C)CCCCC2)NC(=O)c2ccco2)C(=O)CN1C(=O)c1ccccn1`, for which the pIC50 in assay [1] is 8.82; in assay [2] it was 6.58; in assay [3] it was 6.37; in assay [4], 5.41.
The corresponding values for `C[C@@H]1CC[C@H](NC(=O)[C@H](CC2(C)CCCCC2)NC(=O)N2CCOCC2)C(=O)CN1S(=O)(=O)c1ccccn1` are above 9.40, 6.87, 7.31 and 6.24.
The corresponding values for `C[C@@H]1CC[C@H](NC(=O)[C@H](CC2CCCCC2)NC(=O)c2ccco2)C(=O)CN1S(=O)(=O)c1ccccn1` are 9.30, 7.39, 8.92 and 5.75.
In the case of `CC(C)C[C@H](NC(=O)c1cc2cc(OCCN3CCOCC3)ccc2o1)C(=O)N[C@H]1CCCN(C(=O)Cc2cccc(-c3ccccn3)c2)CC1=O`, the negative logarithm of the Ki (pKi) was 8.08 in assay [6], 10.00 in assay [5] and 8.92 in assay [7]. For the same compound, the pIC50 in assay [1] was 8.08; in assay [4], 6.03.
For `C[C@@H]1CC[C@H](NC(=O)[C@H](CC2=CCCC2)NC(=O)c2ccco2)C(=O)CN1S(=O)(=O)c1ccccn1`, the figures for the negative-log IC50 (pIC50) in assay [1], in assay [2] and in assay [3] were 8.31, 8.05 and 8.42, respectively.
Take `C[C@@H]1CC[C@H](NC(=O)[C@H](CC23CCC(CC2)C3(C)C)NC(=O)N2CCOCC2)C(=O)CN1S(=O)(=O)c1ccccn1`: the pIC50 in assay [1] is 8.82; in assay [2], 6.76; in assay [3], 6.86.
Turning to `C[C@@H]1CC[C@H](NC(=O)[C@H](CC2CCC(C)(C)CC2)NC(=O)c2ccco2)C(=O)CN1S(=O)(=O)c1ccccn1`, the negative-log IC50 (pIC50) was 8.92 in assay [1], 5.21 in assay [2] and 7.23 in assay [3].
The like results for `CC1CCC(C[C@H](NC(=O)c2ccco2)C(=O)N[C@H]2CC[C@@H](C)N(S(=O)(=O)c3ccccn3)CC2=O)CC1` (stereo not given in full) were, in that order, 9.30, 6.35 and 9.00.
The corresponding values for `CC(C)C[C@H](NC(=O)c1ccco1)C(=O)N[C@H]1CC[C@@H](C)N(S(=O)(=O)c2ccccn2)CC1=O` are 8.54, 9.00 and 9.28.
The like results for `C[C@@H]1CC[C@H](NC(=O)[C@H](CC2(C)CCCC2)NC(=O)c2ccco2)C(=O)CN1S(=O)(=O)c1ccccn1` were, in that order, above 9.40, 7.95 and 7.65.
Take `C[C@@H]1CC[C@H](NC(=O)[C@H](CC2CCCC2)NC(=O)c2ccco2)C(=O)CN1S(=O)(=O)c1ccccn1`: the pIC50 in assay [1] was 9.12; in assay [2] it was 7.56; in assay [3], 8.32.
